Laboratory results as given in PubChem BioAssay (NCI).
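48-hour exposure; five concentrations; linearly interpolated endpoints. GI50 = concentration required for 50% inhibition of growth. Definition used: TGI = concentration required for complete inhibition of growth.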

How the values were obtained:
Test in all cases: NCI-60 cell line screen, 48 h
HCT-116 colon = tested on: HCT-116 colon
SK-MEL-2 melanoma = tested on: SK-MEL-2 melanoma
U251 CNS = tested on: U251 CNS
M14 melanoma = tested on: M14 melanoma
OVCAR-5 ovarian = tested on: OVCAR-5 ovarian
SNB-19 CNS = tested on: SNB-19 CNS
OVCAR-4 ovarian = tested on: OVCAR-4 ovarian
OVCAR-8 ovarian = tested on: OVCAR-8 ovarian
SK-MEL-28 melanoma = tested on: SK-MEL-28 melanoma
CCRF-CEM leukemia = tested on: CCRF-CEM leukemia

Row | SMILES | GI50 (HCT-116 colon) | TGI (HCT-116 colon) | GI50 (SK-MEL-2 melanoma) | TGI (SK-MEL-2 melanoma) | GI50 (U251 CNS) | TGI (U251 CNS) | GI50 (M14 melanoma) | TGI (M14 melanoma) | GI50 (OVCAR-5 ovarian) | TGI (OVCAR-5 ovarian) | GI50 (SNB-19 CNS) | TGI (SNB-19 CNS) | GI50 (OVCAR-4 ovarian) | TGI (OVCAR-4 ovarian) | GI50 (OVCAR-8 ovarian) | TGI (OVCAR-8 ovarian) | GI50 (SK-MEL-28 melanoma) | TGI (SK-MEL-28 melanoma) | GI50 (CCRF-CEM leukemia) | TGI (CCRF-CEM leukemia)
1 | C=C1C(=O)O[C@H]2[C@H]1CC/C(CNC(=O)c1cc3cc(OC)ccc3[nH]1)=C\CC[C@@]1(C)O[C@@H]21 | 0.645 µM | 2.07 µM | 2.18 µM | 5.24 µM | 3.35 µM | 12.6 µM | 1.5 µM | 3.54 µM | 2.19 µM | 7.35 µM | 7.94 µM | 21.7 µM | 2 µM | 7.57 µM | 2.06 µM | 7.78 µM | 1.62 µM | 4.23 µM | 1.97 µM | 5.93 µM
2 | COc1cc(OC)c(/C=C/S(=O)(=O)Cc2cnc(OC)c(N)c2)c(OC)c1 | < 0.0209 µM | > 100 µM | < 0.01 µM | > 100 µM | < 0.0224 µM | > 100 µM | < 0.0173 µM | > 100 µM | < 0.0482 µM | > 100 µM | < 0.0223 µM | > 100 µM | < 0.0456 µM | > 100 µM | < 0.024 µM | > 100 µM | 20.4 µM | > 100 µM | < 0.0204 µM | > 100 µM
3 | CC1C[C@@]2(c3ccccc3)C(=O)CCC[C@H]2N1 (stereo not given in full) | – | > 100 µM | – | > 100 µM | – | > 100 µM | – | > 100 µM | – | > 100 µM | – | > 100 µM | – | > 100 µM | – | > 100 µM | – | > 100 µM | – | > 100 µM
4 | O=C1c2ccccc2-c2cccc3ccc(Cc4ccc5ccccc5c4)c1c23 | – | > 100 µM | – | > 100 µM | – | > 100 µM | – | > 100 µM | – | > 100 µM | – | > 100 µM | – | > 100 µM | – | > 100 µM | – | > 100 µM | – | > 100 µM
5 | CC(C)c1ccc(C(=O)Nc2nc3ccc(O)cc3s2)cc1 | 0.468 µM | > 100 µM | 18 µM | > 100 µM | 9.32 µM | > 100 µM | 0.167 µM | 46.5 µM | 7.68 µM | > 100 µM | 8.27 µM | > 100 µM | 0.873 µM | 80.2 µM | 1.48 µM | > 100 µM | 0.628 µM | > 100 µM | 0.318 µM | > 100 µM
6 | CN1CCN(CCCN)CC1 | – | > 100 µM | – | > 100 µM | – | > 100 µM | – | > 100 µM | – | > 100 µM | – | > 100 µM | – | > 100 µM | – | > 100 µM | – | > 100 µM | – | > 100 µM
7 | O=S(=O)(NC1=NCCN1C(=S)SN1CCn2c1nsc2=S)c1ccc(Br)cc1 | 24.7 µM | 73.2 µM | 18.7 µM | 46.4 µM | 38.9 µM | > 100 µM | 68.8 µM | > 100 µM | > 100 µM | > 100 µM | > 100 µM | > 100 µM | 49.2 µM | > 100 µM | 25.8 µM | 68.8 µM | 72.5 µM | > 100 µM | 20.9 µM | 71.8 µM
8 | CCNC(=O)CCN(C(=O)O)S(=O)(=O)c1ccc(NC(=O)c2ccccc2)cc1 | – | > 100 µM | – | > 100 µM | – | > 100 µM | – | > 100 µM | – | > 100 µM | – | > 100 µM | – | > 100 µM | – | > 100 µM | – | > 100 µM | – | > 100 µM
9 | O=c1c2c(nc3n1CCS3)[nH]c1ccccc12 | > 100 µM | > 100 µM | > 100 µM | > 100 µM | > 100 µM | > 100 µM | > 100 µM | > 100 µM | > 100 µM | > 100 µM | > 100 µM | > 100 µM | > 100 µM | > 100 µM | > 100 µM | > 100 µM | 90.3 µM | > 100 µM | > 100 µM | > 100 µM
10 | O=C1Nc2ccc(C(=O)c3ccco3)cc2/C1=C/c1cc(Cl)c(O)c(Cl)c1 | 1.87 µM | > 25 µM | 2.86 µM | 7.21 µM | 3.95 µM | > 25 µM | 1.45 µM | 13.3 µM | 8.35 µM | > 20 µM | 8.52 µM | > 25 µM | 6.95 µM | > 25 µM | 6.27 µM | > 25 µM | 4.17 µM | > 18.1 µM | 1.76 µM | > 25 µM
11 | O=c1c2cc(Cl)ccc2oc2ccc(OCCCCCN3CCCCC3)cc12 | 1.75 µM | 6.8 µM | 2.09 µM | 7.96 µM | 6.12 µM | 12.7 µM | 1.17 µM | 2.84 µM | 5.17 µM | 11.2 µM | 6.83 µM | 13.5 µM | 5.5 µM | 11.9 µM | 6.09 µM | 14.2 µM | 1.09 µM | 2.66 µM | 3.92 µM | 11.3 µM
12 | CCOC(=O)Nc1nc2ccc(Cn3cccc3)cc2[nH]1 | – | > 100 µM | – | > 100 µM | – | > 64.8 µM | – | > 100 µM | – | > 100 µM | – | > 100 µM | – | > 100 µM | – | > 100 µM | – | > 100 µM | – | 25.1 µM
